What was measured:
Test in all cases: relative viability (nuclei count vs DMSO), 5 days (fraction); higher = more cells survive
Obatoclax + Linsitinib = compound: COC1=CC(c2cc3ccccc3[nH]2)=N/C1=C\c1[nH]c(C)cc1C [Obatoclax] + C[C@]1(O)C[C@@H](c2nc(-c3ccc4ccc(-c5ccccc5)nc4c3)c3c(N)nccn32)C1 [Linsitinib] (partner 1 µM)
In short: (§1)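 Five library-drug doses in √10 steps were combined with a fixed anchor-drug dose, or a single drug was given alone, by pin tool to lung cancer cell lines in 1536-well plates the day after seeding. Nuclei were stained and counted after 5 days. Relative viability is the nuclei count in treated wells over that in vehicle wells, taken as the median of duplicate plates.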

Obatoclax + Alpelisib = compound: COC1=CC(c2cc3ccccc3[nH]2)=N/C1=C\c1[nH]c(C)cc1C [Obatoclax] + Cc1nc(NC(=O)N2CCC[C@H]2C(N)=O)sc1-c1ccnc(C(C)(C)C(F)(F)F)c1 [Alpelisib] (partner 2 µM)
In short: as §1

Bortezomib + Tozasertib = compound: CC(C)C[C@H](NC(=O)[C@H](Cc1ccccc1)NC(=O)c1cnccn1)B(O)O [Bortezomib] + Cc1cc(Nc2cc(N3CCN(C)CC3)nc(Sc3ccc(NC(=O)C4CC4)cc3)n2)n[nH]1 [Tozasertib] (partner 0.1 µM)
In short: as §1

Bortezomib + Pemetrexed = compound: CC(C)C[C@H](NC(=O)[C@H](Cc1ccccc1)NC(=O)c1cnccn1)B(O)O [Bortezomib] + Nc1nc2[nH]cc(CCc3ccc(C(=O)N[C@@H](CCC(=O)O)C(=O)O)cc3)c2c(=O)[nH]1 [Pemetrexed] (partner 0.2 µM)
In short: as §1

NCI-H650
relative viability (Obatoclax + Linsitinib; first compound 0.01 µM): 0.874
relative viability (Obatoclax + Linsitinib; first compound 0.03162 µM): 0.757
relative viability (Obatoclax + Linsitinib; first compound 0.1 µM): 0.329
relative viability (Obatoclax + Linsitinib; first compound 0.3162 µM): 0.528
relative viability (Obatoclax + Linsitinib; first compound 1 µM): 0.425
relative viability (Obatoclax + Alpelisib; first compound 0.01 µM): 0.975
relative viability (Obatoclax + Alpelisib; first compound 0.03162 µM): 1.1
relative viability (Obatoclax + Alpelisib; first compound 0.1 µM): 0.811
relative viability (Obatoclax + Alpelisib; first compound 0.3162 µM): 0.693
relative viability (Obatoclax + Alpelisib; first compound 1 µM): 0.446
relative viability (Bortezomib + Tozasertib; first compound 0.000632 µM): 0.697
relative viability (Bortezomib + Tozasertib; first compound 0.002 µM): 0.637
relative viability (Bortezomib + Tozasertib; first compound 0.006325 µM): 0.286
relative viability (Bortezomib + Tozasertib; first compound 0.02 µM): 0.133
relative viability (Bortezomib + Pemetrexed; first compound 0.0002 µM): 0.914
relative viability (Bortezomib + Pemetrexed; first compound 0.000632 µM): 0.997
relative viability (Bortezomib + Pemetrexed; first compound 0.002 µM): 0.878
relative viability (Bortezomib + Pemetrexed; first compound 0.006325 µM): 0.85
relative viability (Bortezomib + Pemetrexed; first compound 0.02 µM): 0.16
